The source of these data is US20080096970A1, “Stable Nateglinide Form B Compositions” (priority 2004, published 2008).

The data set in a line: Polymorphic stability of nateglinide Form B after processing: absence of Form H by X-ray powder diffraction. The format is physicochemical. The note with it: Cu Kα-1, after de-lumping and air jet milling, Form H detectable at about 2 percent by weight or more. The procedure:
Stability of the nateglinide Form B after processing is determined by an absence of the polymorphic Form H of the compound. This is determined by generating X-ray powder diffraction patterns of samples and checking for the characteristic peaks that correspond to Form H. For the present application, the X-ray diffraction patterns of the figures were obtained with Cu Kα-1 radiation. Nateglinide Form H can be detected at concentrations at least about 2 percent by weight, and quantified at concentrations at least about 5 percent by weight.

As for `CC(C)[C@H]1CC[C@H](C(=O)NC(Cc2ccccc2)C(=O)O)CC1` (single isomer, unassigned; (-)) [nateglinide Form B, (−)-N-[(trans-4-isopropylcyclohexane)-carbonyl]-D-phenylalanine], the “presence of nateglinide Form H after particle size reduction (stability of Form B)” value is reported as “not detected”.
